In patent US20210400967A1, “COMPOSITIONS COMPRISING PYRIDINE CARBOXYLATE HERBICIDES WITH GLYPHOSATE OR GLUFOSINATE” (Corteva Agriscience LLC, priority 2018, published 2021):

Key:
Type in all cases: in vivo
[1] = system: Brassica napus (winter rape); test: Greenhouse postemergence herbicidal effect, winter rape (BRSNW); settings: 20-22 d; for % visual injury: Example 1
Source text: (§1) Greenhouse Trial Methodology—Evaluation of Postemergence Herbicidal Effect
(§2) Seeds of the desired test plant species were planted in a 90:10% v/v (volume/volume) mixture of PRO-MIX® BX (Premier Tech Horticulture, Quakertown, Pa., USA) and PROFILE® GREENS GRADE™ (Profile Products LLC, Buffalo Grove, Ill., USA) planting mixture, which typically has a pH of 5.2 to 6.2 and an organic matter content of at least 50 percent, in plastic pots with a surface area of 103.2 square centimeters (cm^2). In some aspects, to ensure good germination and healthy plants, a fungicide treatment and/or other chemical or physical treatment was applied. The plants were grown for 7-36 days (d) in a greenhouse with an approximate 14-hour (h) photo-period which was maintained at about 23° C. during the day and 22° C. during the night. Nutrients and water were added on a regular basis and supplemental lighting was provided with overhead metal halide 1000-Watt lamps as necessary. The plants were employed for testing when they reached the second or third true leaf stage.
(§3) Emulsifiable concentrates of each of each pyridine carboxylate herbicide (Compound A or Compound B) were prepared at 100 grams acid equivalent per liter (g ae/L). The emulsifiable concentrates also included a safener, cloquintocet-mexyl, at 120 grams active ingredient per liter (g ai/L). An aliquot of each emulsifiable concentrate was placed in a 25 mL glass vial and diluted with an aqueous mixture of 1.25% (v/v) ACTIROB® B esterified rapeseed oil (Bayer Crop Science, Research Triangle Park, N.C., USA) or MSO® Concentrate with LECI-TECH® methylated soybean oil (Loveland Products, Loveland, Colo., USA) to obtain concentrated stock solutions at the highest application rate for each herbicide, based upon a 12 milliliter (mL) application volume at a rate of 187 liters per hectare (L/ha). The concentrated stock solutions were further diluted with an aqueous mixture of 1.25% v/v ACTIROB® B or MSO® Concentrate with LECI-TECH® to obtain stock solutions at reduced application rates for each herbicide. Spray solutions of the herbicide combinations (Compound A or Compound B plus glyphosate or glufosinate) were prepared by adding weighed amounts or aliquots of the glyphosate or glufosinate to the stock solutions of Compound A or Compound B to form 12-mL spray solutions in two-way combinations.
(§4) The spray solutions were applied to the plant material with an overhead Mandel track sprayer equipped with 8002E nozzles calibrated to deliver 187 L/ha over an application area of 0.503 square meters (m^2) at a spray height of 18 inches (43 centimeters (cm)) above the average plant canopy. Control plants were sprayed in the same manner with the solvent blank. All pyridine carboxylate herbicide (component a) application rates are given as “g ae/ha” and all glyphosate or glufosinate (component b) application rates are given as “g ai/ha.”
(§5) The treated plants and control plants were placed in a greenhouse as described above and watered by sub-irrigation to prevent wash-off of the test compounds. After 20-22 d, the condition of the test plants as compared with that of the control plants was determined visually and scored on a scale of 0 to 100 percent where 0 corresponds to no injury and 100 corresponds to complete kill.

[2] = system: Viola tricolor (wild pansy); test: Greenhouse postemergence herbicidal effect, wild pansy (VIOTR); settings: Example 5, 20-22 d
Source text: as §1, §2, §3, §4, §5

[3] = system: Euphorbia heterophylla (poinsettia); test: Greenhouse postemergence herbicidal effect, poinsettia (EPHHL); settings: Example 5, 20-22 d
Source text: as §1, §2
(§6) Emulsifiable concentrates of each of each pyridine carboxylate herbicide (Compound A or Compound B) were prepared at 100 grams acid equivalent per liter (g ae/L). The emulsifiable concentrates also included a safener, cloquintocet-mexyl, at 120 grams active ingredient per liter (g ai/L). […]
as §5

Kochia scoparia (kochia) = test: Greenhouse postemergence herbicidal effect, kochia (KCHSC); settings: 20-22 d; for % visual injury: Example 1
Source text: as §1, §2, §3, §4, §5

[4] = system: Rumex obtusifolius (broad-leaf dock); test: Greenhouse postemergence herbicidal effect, broad-leaf dock (RUMOB); settings: Example 5, 20-22 d
Source text: as §1, §2, §6, §5

[5] = system: Polygonum convolvulus (wild buckwheat); test: Greenhouse postemergence herbicidal effect, wild buckwheat (POLCO); settings: 20-22 d; for % visual injury: Example 1
Source text: as §1, §2, §3, §4, §5

[6] = system: Cirsium arvense (Canadian thistle); test: Greenhouse postemergence herbicidal effect, Canadian thistle (CIRAR); settings: 20-22 d; for % visual injury: Example 1
Source text: as §1, §2, §3, §4, §5

[7] = system: Amaranthus retroflexus (pigweed); test: Greenhouse postemergence herbicidal effect, pigweed (AMARE); settings: 20-22 d; for % visual injury: Example 1
Source text: as §1, §2, §3, §4, §5

[8] = system: Matricaria chamomilla (wild chamomile); test: Greenhouse postemergence herbicidal effect, wild chamomile (MATCH); settings: 20-22 d; for % visual injury: Example 1
Source text: as §1, §2, §3, §4, §5

[9] = system: Chenopodium album L. (common lambsquarters); test: Greenhouse postemergence herbicidal effect, common lambsquarters (CHEAL); settings: 20-22 d; for % visual injury: Example 1
Source text: as §1, §2, §3, §4, §5

[10] = system: Cyperus esculentus (nutsedge); test: Greenhouse postemergence herbicidal effect, nutsedge (CYPES); settings: Example 5, 20-22 d
Source text: as §1, §2, §6, §5

[11] = system: Stellaria media (chickweed); test: Greenhouse postemergence herbicidal effect, chickweed (STEME); settings: Example 5, 20-22 d
Source text: as §1, §2, §6, §5

[12] = system: Sinapis arvensis (wild mustard); test: Greenhouse postemergence herbicidal effect, wild mustard (SINAR); settings: 20-22 d; for % visual injury: Example 1
Source text: as §1, §2, §3, §4, §5

[13] = system: Echinochloa crus-galli (barnyardgrass); test: Greenhouse postemergence herbicidal effect, barnyardgrass (ECHCG); settings: Example 5, 20-22 d
Source text: as §1, §2, §6, §5

[14] = system: Sorghum vulgare (grain sorghum); test: Greenhouse postemergence herbicidal effect, grain sorghum (SORVU); settings: Example 5, 20-22 d
Source text: as §1, §2, §6, §5

[15] = system: Helianthus annuus (common sunflower); test: Greenhouse postemergence herbicidal effect, common sunflower (HELAN); settings: Example 5, 20-22 d
Source text: as §1, §2, §6, §5

[16] = system: Triticum aestivum (spring wheat); test: Greenhouse postemergence phytotoxicity on crop, spring wheat (TRZAS); settings: 20-22 d; for % visual injury: Example 1
Source text: as §1, §2, §3, §4, §5

[17] = system: Salsola kali (Russian thistle); test: Greenhouse postemergence herbicidal effect, Russian thistle (SASKR); settings: 20-22 d; for % visual injury: Example 1
Source text: as §1, §2, §3, §4, §5

[18] = system: Hordeum vulgare (spring barley); test: Greenhouse postemergence phytotoxicity on crop, spring barley (HORVS); settings: 20-22 d; for % visual injury: Example 1
Source text: as §1, §2, §3, §4, §5

[19] = system: Ipomoea hederacea (ivyleaf morningglory); test: Greenhouse postemergence herbicidal effect, ivyleaf morningglory (IPOHE); settings: Example 5, 20-22 d
Source text: as §1, §2, §6, §5

[20] = Example 2, Compound A 7.5 g ae/ha alone
[21] = Example 2, Compound A 10 g ae/ha alone
[22] = Example 6, Compound A 7.5 g ae/ha alone
[23] = Example 6, Compound A 10 g ae/ha alone
[24] = Example 5, Compound A 7.5 g ae/ha alone
[25] = Example 5, Compound A 10 g ae/ha alone

N#CCOC(=O)c1nc(-c2ccc3cc[nH]c3c2F)c(F)c(N)c1Cl [Compound A, cyanomethyl 4-amino-3-chloro-5-fluoro-6-(7-fluoro-1H-indol-6-yl)pyridine-2-carboxylate]
% visual injury ([1]; Compound A 7.5 g ae/ha alone): 35% | % visual injury ([1]; Compound A 10 g ae/ha alone): 43% | % visual injury, Obs [1, 20]: 35% | % visual injury, Obs [1, 21]: 40% | % visual injury, Obs [1, 22]: 35% | % visual injury, Obs [1, 23]: 40% | % visual injury, Obs ([2]; Compound A 7.5 g ae/ha alone): 38% | % visual injury, Obs ([2]; Compound A 10 g ae/ha alone): 15% | % visual injury, Obs ([3]; Compound A 7.5 g ae/ha alone): 97% | % visual injury, Obs ([3]; Compound A 10 g ae/ha alone): 97% | % visual injury (Kochia scoparia (kochia); Compound A 7.5 g ae/ha alone): 63% | % visual injury (Kochia scoparia (kochia); Compound A 10 g ae/ha alone): 63% | % visual injury, Obs (Kochia scoparia (kochia); [20]): 70% | % visual injury, Obs (Kochia scoparia (kochia); [21]): 70% | % visual injury, Obs (Kochia scoparia (kochia); [24]): 75% | % visual injury, Obs (Kochia scoparia (kochia); [25]): 73% | % visual injury, Obs (Kochia scoparia (kochia); [22]): 70% | % visual injury, Obs (Kochia scoparia (kochia); [23]): 70% | % visual injury, Obs ([4]; Compound A 7.5 g ae/ha alone): 20% | % visual injury, Obs ([4]; Compound A 10 g ae/ha alone): 13% | % visual injury ([5]; Compound A 7.5 g ae/ha alone): 78% | % visual injury ([5]; Compound A 10 g ae/ha alone): 93% | % visual injury, Obs [5, 20]: 30% | % visual injury, Obs [5, 21]: 43% | % visual injury, Obs [5, 24]: 83% | % visual injury, Obs [5, 25]: 93% | % visual injury, Obs [5, 22]: 30% | % visual injury, Obs [5, 23]: 43% | % visual injury ([6]; Compound A 7.5 g ae/ha alone): 30% | % visual injury ([6]; Compound A 10 g ae/ha alone): 40% | % visual injury, Obs [6, 20]: 40% | % visual injury, Obs [6, 21]: 55% | % visual injury, Obs [6, 24]: 40% | % visual injury, Obs [6, 25]: 60% | % visual injury, Obs [6, 22]: 40% | % visual injury, Obs [6, 23]: 55% | % visual injury ([7]; Compound A 7.5 g ae/ha alone): 78% | % visual injury ([7]; Compound A 10 g ae/ha alone): 73% | % visual injury, Obs [7, 20]: 90% | % visual injury, Obs [7, 21]: 85% | % visual injury, Obs [7, 22]: 90% | % visual injury, Obs [7, 23]: 85% | % visual injury ([8]; Compound A 7.5 g ae/ha alone): 20% | % visual injury ([8]; Compound A 10 g ae/ha alone): 30% | % visual injury, Obs [8, 20]: 10% | % visual injury, Obs [8, 21]: 20% | % visual injury, Obs [8, 22]: 10% | % visual injury, Obs [8, 23]: 20% | % visual injury ([9]; Compound A 7.5 g ae/ha alone): 88% | % visual injury ([9]; Compound A 10 g ae/ha alone): 93% | % visual injury, Obs [9, 20]: 75% | % visual injury, Obs [9, 21]: 80% | % visual injury, Obs [9, 22]: 75% | % visual injury, Obs [9, 23]: 80% | % visual injury, Obs ([10]; Compound A 7.5 g ae/ha alone): 30% | % visual injury, Obs ([10]; Compound A 10 g ae/ha alone): 8% | % visual injury, Obs ([11]; Compound A 7.5 g ae/ha alone): 89% | % visual injury, Obs ([11]; Compound A 10 g ae/ha alone): 90% | % visual injury ([12]; Compound A 7.5 g ae/ha alone): 88% | % visual injury ([12]; Compound A 10 g ae/ha alone): 90% | % visual injury, Obs [12, 20]: 83% | % visual injury, Obs [12, 21]: 88% | % visual injury, Obs [12, 22]: 83% | % visual injury, Obs [12, 23]: 88% | % visual injury, Obs ([13]; Compound A 7.5 g ae/ha alone): 88% | % visual injury, Obs ([13]; Compound A 10 g ae/ha alone): 80% | % visual injury, Obs ([14]; Compound A 7.5 g ae/ha alone): 0% | % visual injury, Obs ([14]; Compound A 10 g ae/ha alone): 0% | % visual injury, Obs ([15]; Compound A 7.5 g ae/ha alone): 90% | % visual injury, Obs ([15]; Compound A 10 g ae/ha alone): 89% | % visual injury ([16]; Compound A 7.5 g ae/ha alone): 0% | % visual injury ([16]; Compound A 10 g ae/ha alone): 0% | % visual injury, Obs [16, 20]: 0% | % visual injury, Obs [16, 21]: 0% | % visual injury, Obs [16, 22]: 0% | % visual injury, Obs [16, 23]: 0% | % visual injury ([17]; Compound A 7.5 g ae/ha alone): 60% | % visual injury ([17]; Compound A 10 g ae/ha alone): 63% | % visual injury, Obs [17, 20]: 60% | % visual injury, Obs [17, 21]: 63% | % visual injury, Obs [17, 22]: 60% | % visual injury, Obs [17, 23]: 63% | % visual injury ([18]; Compound A 7.5 g ae/ha alone): 0% | % visual injury ([18]; Compound A 10 g ae/ha alone): 0% | % visual injury, Obs [18, 20]: 0% | % visual injury, Obs [18, 21]: 0% | % visual injury, Obs [18, 22]: 0% | % visual injury, Obs [18, 23]: 0% | % visual injury, Obs ([19]; Compound A 7.5 g ae/ha alone): 20% | % visual injury, Obs ([19]; Compound A 10 g ae/ha alone): 25%
